Test results reported in ChEMBL document CHEMBL1132622, “Synthesis, structure-activity relationships, and in vivo evaluations of substituted di-tert-butylphenols as a novel class of potent, selective, and orally active cyclooxygenase-2 inhibitors. 2. 1,3,4- and 1,2,4-thiadiazole series” (J Med Chem, 1999).

How the values were obtained:
[1] = target: T1, Prostaglandin G/H synthase 2 (Mus musculus, UniProt Q05769)
T1 sequence (Q05769 whole entry): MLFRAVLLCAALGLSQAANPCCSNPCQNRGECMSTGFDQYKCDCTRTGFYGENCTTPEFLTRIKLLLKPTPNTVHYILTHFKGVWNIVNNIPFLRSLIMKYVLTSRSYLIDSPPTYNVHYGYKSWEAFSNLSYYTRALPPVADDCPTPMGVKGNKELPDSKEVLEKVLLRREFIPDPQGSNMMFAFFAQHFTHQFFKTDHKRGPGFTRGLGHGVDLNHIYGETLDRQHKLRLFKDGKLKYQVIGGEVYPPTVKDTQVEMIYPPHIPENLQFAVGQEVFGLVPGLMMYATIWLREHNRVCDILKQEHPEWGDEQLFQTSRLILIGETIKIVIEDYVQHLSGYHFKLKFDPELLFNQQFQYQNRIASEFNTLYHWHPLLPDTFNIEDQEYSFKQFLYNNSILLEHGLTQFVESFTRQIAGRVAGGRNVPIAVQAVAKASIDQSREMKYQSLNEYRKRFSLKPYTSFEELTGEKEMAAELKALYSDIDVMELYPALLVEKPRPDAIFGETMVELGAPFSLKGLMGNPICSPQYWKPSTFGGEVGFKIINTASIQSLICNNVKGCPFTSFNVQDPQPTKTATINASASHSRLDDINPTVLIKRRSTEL

[2] = target: T2, Prostaglandin G/H synthase 1 (Ovis aries) (UniProt P05979); assay: IC50 value against ovine Prostaglandin G/H synthase 1 at 30 uM
T2 sequence (whole entry): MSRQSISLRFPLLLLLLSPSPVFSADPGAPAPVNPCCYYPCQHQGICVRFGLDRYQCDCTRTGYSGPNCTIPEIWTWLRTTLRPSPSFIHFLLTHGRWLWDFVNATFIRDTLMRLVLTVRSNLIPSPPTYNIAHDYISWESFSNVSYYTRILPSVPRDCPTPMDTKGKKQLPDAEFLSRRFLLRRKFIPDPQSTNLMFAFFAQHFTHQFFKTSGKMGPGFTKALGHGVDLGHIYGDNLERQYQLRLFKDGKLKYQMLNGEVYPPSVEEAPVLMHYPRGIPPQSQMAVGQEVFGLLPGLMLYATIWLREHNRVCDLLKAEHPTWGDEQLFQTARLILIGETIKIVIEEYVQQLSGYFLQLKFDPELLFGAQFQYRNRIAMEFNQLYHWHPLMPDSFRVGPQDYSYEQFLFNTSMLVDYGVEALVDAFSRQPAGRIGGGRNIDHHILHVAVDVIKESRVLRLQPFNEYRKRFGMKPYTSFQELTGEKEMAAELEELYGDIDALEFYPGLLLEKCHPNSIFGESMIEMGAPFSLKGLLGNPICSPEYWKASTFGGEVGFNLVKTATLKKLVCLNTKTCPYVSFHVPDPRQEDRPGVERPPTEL

[3] = target: Prostaglandin G/H synthase 1 (Homo sapiens, UniProt P23219); assay: IC50 value against Prostaglandin G/H synthase 1 of human platelet rich plasma; type: cell-free
[4] = target: T3, Prostaglandin G/H synthase 2 (Homo sapiens, UniProt P35354); assay: Inhibition of recombinant human prostaglandin G/H synthase 2 (COX-2)
T3 sequence (P35354 whole entry): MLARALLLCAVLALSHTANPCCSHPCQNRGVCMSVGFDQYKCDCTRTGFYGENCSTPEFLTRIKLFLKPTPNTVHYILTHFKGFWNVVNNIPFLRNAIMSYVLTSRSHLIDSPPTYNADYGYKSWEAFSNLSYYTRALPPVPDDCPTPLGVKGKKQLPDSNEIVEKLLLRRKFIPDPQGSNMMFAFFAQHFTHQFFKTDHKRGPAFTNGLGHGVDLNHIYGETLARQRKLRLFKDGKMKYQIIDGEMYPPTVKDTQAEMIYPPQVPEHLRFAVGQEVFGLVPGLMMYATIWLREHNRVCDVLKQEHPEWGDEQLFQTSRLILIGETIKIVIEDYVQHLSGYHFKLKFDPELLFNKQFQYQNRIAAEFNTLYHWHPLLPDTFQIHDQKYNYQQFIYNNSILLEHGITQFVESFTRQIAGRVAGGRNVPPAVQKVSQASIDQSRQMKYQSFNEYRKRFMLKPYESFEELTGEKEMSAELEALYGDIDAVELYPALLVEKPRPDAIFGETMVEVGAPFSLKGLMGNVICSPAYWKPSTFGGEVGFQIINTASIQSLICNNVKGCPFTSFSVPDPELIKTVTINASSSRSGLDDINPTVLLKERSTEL

[5] = organism: Rattus norvegicus; assay: ED50 was measured by CFE assay method.; type: functional
[6] = organism: Rattus norvegicus; assay: Percentage of gastric damage was measured in rats.; type: functional, Stomach
[7] = organism: Rattus norvegicus; assay: Lesion frequency was measured in rats.; type: functional
[8] = organism: Rattus norvegicus; assay: Percentage inhibition of the prostaglandin synthesis was measured in rats.; type: functional
[9] = target: T4, Prostaglandin G/H synthase 1 (Ovis aries, UniProt P05979); assay: IC50 value against ovine Prostaglandin G/H synthase 1
T4 sequence (P05979 whole entry): T2 sequence (whole entry)

[10] = organism: Rattus norvegicus; assay: ED50 was measured by hyperalgesia assay method.; type: functional
[11] = target: T1, Prostaglandin G/H synthase 2; assay: IC50 value against Prostaglandin G/H synthase 2 of murine J774A.1 cell line
[12] = target: T2, Prostaglandin G/H synthase 1 (Ovis aries); assay: IC50 value against ovine Prostaglandin G/H synthase 1 at 10 uM
[13] = target: T5, Prostaglandin G/H synthase 2 (Homo sapiens) (UniProt P35354); assay: IC50 value against recombinant human Prostaglandin G/H synthase 2 at 10 uM
T5 sequence (whole entry): T3 sequence (P35354 whole entry)

Chain of Prostaglandin G/H synthase 1 (Homo sapiens, UniProt P23219) (P23219 whole entry): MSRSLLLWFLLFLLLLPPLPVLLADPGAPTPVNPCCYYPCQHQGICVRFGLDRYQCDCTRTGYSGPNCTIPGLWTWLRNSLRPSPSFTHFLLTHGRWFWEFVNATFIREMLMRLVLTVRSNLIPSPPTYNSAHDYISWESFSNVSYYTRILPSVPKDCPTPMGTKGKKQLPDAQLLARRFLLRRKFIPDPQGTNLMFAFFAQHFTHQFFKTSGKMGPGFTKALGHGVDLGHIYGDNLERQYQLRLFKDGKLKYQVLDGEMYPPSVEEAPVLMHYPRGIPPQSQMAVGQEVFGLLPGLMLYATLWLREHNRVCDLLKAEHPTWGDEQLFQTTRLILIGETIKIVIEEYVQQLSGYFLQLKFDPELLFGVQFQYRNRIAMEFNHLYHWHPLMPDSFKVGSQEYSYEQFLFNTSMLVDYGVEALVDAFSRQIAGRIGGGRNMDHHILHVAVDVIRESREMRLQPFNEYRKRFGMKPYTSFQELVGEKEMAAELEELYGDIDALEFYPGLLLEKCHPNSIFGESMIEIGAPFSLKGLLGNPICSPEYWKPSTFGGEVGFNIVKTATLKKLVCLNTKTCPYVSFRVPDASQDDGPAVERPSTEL

| IC50 [1] [µM] | inhibition [2] [%] | IC50 [3] [µM] | IC50 [4] [µM] | IC50 [9] [µM] | IC50 [11] | inhibition [12] [%] | inhibition [13] [%] | Compound | ED50 [5] [mg/kg] | Damaged area [6] [%] | Lesion frequency [7] [%] | Inhibition [8] [%] | ED50 [10] [mg/kg] |
| --- | --- | --- | --- | --- | --- | --- | --- | --- | --- | --- | --- | --- | --- |
| 0.11 | 34 | 0.53 | 3.5 | – | – | – | – | CC(C)(C)c1cc(-c2nnc(N)s2)cc(C(C)(C)C)c1O | – | – | – | – | – |
| 0.026 | – | 1.2 | 0.047 | 32 | – | – | – | CC(C)(C)c1cc(-c2nsc(NC#N)n2)cc(C(C)(C)C)c1O | 5.8 | 4.91 | 87.5 | 87.7 | 0.2 |
| 0.33 | 16 | 2.8 | 23 | – | – | – | – | CC(C)(C)c1cc(-c2nnc(N=C(N)N)o2)cc(C(C)(C)C)c1O | – | – | – | – | – |
| – | – | 3.6 | > 20 | > 20 | Not Active | – | – | CC(C)(C)c1cc(-c2nnc(NC#N)s2)cc(C(C)(C)C)c1O | 7.7 | 0.02 | 12.5 | 22 | 1.3 |
| > 20 | – | – | – | – | – | 25 | 14 | CSc1nnc(-c2cc(C(C)C)c(O)c(C(C)C)c2)s1 | – | – | – | – | – |
| – | – | – | – | – | – | – | – | CS(=O)(=O)Nc1ccc([N+](=O)[O-])cc1OC1CCCCC1 [NS-398] | 0.61 | 0 | 0 | 30.7 | 7.4 |
| 0.26 | – | 3.6 | – | – | – | 16 | 20 | CSc1nc(-c2cc(C(C)(C)C)c(O)c(C(C)(C)C)c2)ns1 | – | – | – | – | – |

| Compound | IC50 [1] [µM] | inhibition [2] [%] | IC50 [3] [µM] | IC50 [4] [µM] | IC50 [9] [µM] | IC50 [11] | inhibition [12] [%] | inhibition [13] [%] | ED50 [5] [mg/kg] | Damaged area [6] [%] | Lesion frequency [7] [%] | Inhibition [8] [%] | ED50 [10] [mg/kg] |
| --- | --- | --- | --- | --- | --- | --- | --- | --- | --- | --- | --- | --- | --- |
| CCSc1nnc(-c2nc(C(C)(C)C)c(O)c(C(C)(C)C)n2)s1 | 0.018 | – | 0.68 | 2 | – | – | 39 | – | – | – | – | – | – |
